Read-outs that look alike come from different tables or passages of the source.
System: test plant species
Assay: Post-emergent herbicidal activity test (greenhouse, foliar spray, visual growth reduction)
Assay type: in vivo
Conditions: post-emergence, 336 h, 140 g ai/ha
Procedure: Post-emergent Test: Seeds or nutlets of the desired test plant species were planted in Sun Gro Metro-Mix® 360 planting mixture, which typically has a pH of 6.0 to 6.8 and an organic matter content of about 30 percent, in plastic pots with a surface area of 64 square centimeters. In some aspects, to ensure good germination and healthy plants, a fungicide treatment and/or other chemical or physical treatment was applied. The plants were grown for 7-21 d in a greenhouse with an approximate 15 h photoperiod which was maintained at 23-29° C. during the day and 22-28° C. during the night. Nutrients and water were added on a regular basis and supplemental lighting was provided with overhead metal halide 1000-Watt lamps as necessary. Plants were used for testing when they reached the first or second true leaf stage. A weighed amount, determined by the highest rate to be tested, of each test compound was placed in a 25 mL glass vial and was dissolved in 4 mL of a 97:3 v/v mixture of acetone and DMSO to obtain concentrated stock solutions. […] The concentrated stock solutions obtained were diluted with 20 mL of an aqueous mixture containing acetone, water, isopropyl alcohol, DMSO, […] crop oil concentrate, and X-77 surfactant in a 48.5:39:10:1.5:1.0:0.02 v/v ratio to obtain spray solutions containing the application rate. Compound requirements are based upon a 12 mL application volume at a rate of 187 liters per hectare (L/ha). Formulated compounds were applied to the plant material with an overhead Mandel track sprayer equipped with […] nozzles calibrated to deliver 187 L/ha over an application area of 0.64 square meters at a spray height of 18 inches (43 cm) above the average plant canopy height. Control plants were sprayed in the same manner with the solvent blank. The treated plants and control plants were placed in a greenhouse as described above and watered by subirrigation to prevent wash-off of the test compounds. After 14 d, the condition of the test plants as compared with that of the nontreated and control plants was determined visually and scored on a scale of 0 to 100 percent where 0 corresponds to no injury and 100 corresponds to complete control. In the reporting of the results, Table A: Percent Growth Reduction Conversion Table was used.

[1] = ALOMY: blackgrass (Alopecurus myosuroides), 14 days after application, read-out: Visual Growth Reduction (%) 14 Days After Application, ALOMY
[2] = AMARE: redroot pigweed (Amaranthus retroflexus), 14 days after application, read-out: Visual Growth Reduction (%) 14 Days After Application, AMARE
[3] = AVEFA: wild oat (Avena fatua), 14 days after application, read-out: Visual Growth Reduction (%) 14 Days After Application, AVEFA
[4] = CHEAL: lambsquarters (Chenopodium album), 14 days after application, read-out: Visual Growth Reduction (%) 14 Days After Application, CHEAL
[5] = CIRAR: canada thistle (Cirsium arvense), 14 days after application, read-out: Visual Growth Reduction (%) 14 Days After Application, CIRAR
[6] = CYPES: yellow nutsedge (Cyperus esculentus), 14 days after application, read-out: Visual Growth Reduction (%) 14 Days After Application, CYPES
[7] = DIGSA: crabgrass (Digitaria sanguinalis), 14 days after application, read-out: Visual Growth Reduction (%) 14 Days After Application, DIGSA
[8] = ECHCG: barnyardgrass (Echinochloa crus-galli), 14 days after application, read-out: Visual Growth Reduction (%) 14 Days After Application, ECHCG
[9] = IPOHE: ivy-leaf morning glory (Ipomoea hederacea), 14 days after application, read-out: Visual Growth Reduction (%) 14 Days After Application, IPOHE
[10] = ORYSA: rice (Oryza sativa), 14 days after application, read-out: Visual Growth Reduction (%) 14 Days After Application, ORYSA
[11] = SETFA: giant foxtail (Setaria faberi), 14 days after application, read-out: Visual Growth Reduction (%) 14 Days After Application, SETFA
[12] = SORVU: grain sorghum (Sorghum vulgare), 14 days after application, read-out: Visual Growth Reduction (%) 14 Days After Application, SORVU
[13] = STEME: common chickweed (Stellaria media), 14 days after application, read-out: Visual Growth Reduction (%) 14 Days After Application, STEME
[14] = TRZAS: wheat, spring (Triticum aestivum), 14 days after application, read-out: Visual Growth Reduction (%) 14 Days After Application, TRZAS
[15] = KCHSC: kochia (Bassia scoparia), 14 days after application, read-out: Visual Growth Reduction (%) 14 Days After Application, KCHSC
[16] = blackgrass (Alopecurus myosuroides), 14 Days After Application, read-out: Visual Growth Reduction (%) ALOMY
[17] = canada thistle (Cirsium arvense), 14 Days After Application, read-out: Visual Growth Reduction (%) CIRAR
[18] = crabgrass (Digitaria sanguinalis), 14 Days After Application, read-out: Visual Growth Reduction (%) DIGSA
[19] = lambsquarters (Chenopodium album), 14 Days After Application, read-out: Visual Growth Reduction (%) CHEAL
[20] = redroot pigweed (Amaranthus retroflexus), 14 Days After Application, read-out: Visual Growth Reduction (%) AMARE
[21] = wild oat (Avena fatua), 14 Days After Application, read-out: Visual Growth Reduction (%) AVEFA
[22] = yellow nutsedge (Cyperus esculentus), 14 Days After Application, read-out: Visual Growth Reduction (%) CYPES

SMILES | pest or weed control at 140 g/ha [1] | pest or weed control at 140 g/ha [2] | pest or weed control at 140 g/ha [3] | pest or weed control at 140 g/ha [4] | pest or weed control at 140 g/ha [5] | pest or weed control at 140 g/ha [6] | pest or weed control at 140 g/ha [7] | pest or weed control at 140 g/ha [8] | pest or weed control at 140 g/ha [9] | pest or weed control at 140 g/ha [10] | pest or weed control at 140 g/ha [11] | pest or weed control at 140 g/ha [12] | pest or weed control at 140 g/ha [13] | pest or weed control at 140 g/ha [14] | pest or weed control at 140 g/ha [15] | pest or weed control at 140 g/ha [16] | pest or weed control at 140 g/ha [17] | pest or weed control at 140 g/ha [18] | pest or weed control at 140 g/ha [19] | pest or weed control at 140 g/ha [20] | other results
COc1c(Cl)ccc(-c2ccc(Cl)c(C(=O)O)n2)c1F [F78, 3-chloro-6-(4-chloro-2-fluoro-3-methoxyphenyl)picolinic acid] | 0 to 29% | 45 to 59% | 0 to 29% | 75 to 84% | 60 to 74% | 0 to 29% | 0 to 29% | 0 to 29% | 45 to 59% | 0 to 29% | 0 to 29% | 0 to 29% | 30 to 44% | 0 to 29% | – | – | – | – | – | – | –
COc1cc(C(F)(F)F)ccc1-c1nc(C(=O)OCc2ccccc2)c(Cl)cc1F [F363, Benzyl 3-chloro-5-fluoro-6-(2-methoxy-4-(trifluoromethyl)phenyl)picolinate] | – | – | – | – | – | – | – | 95 to 100% | 95 to 100% | 30 to 44% | 85 to 94% | 95 to 100% | 30 to 44% | 75 to 84% | 75 to 84% | 0 to 29% | 85 to 94% | 0 to 29% | 95 to 100% | 95 to 100% | pest or weed control at 140 g/ha [21]: 85 to 94%; pest or weed control at 140 g/ha [22]: 0 to 29%
COC(=O)c1nc(-c2ccc(C(F)(F)F)cc2OC)c(F)cc1F [F377, Methyl 3,5-difluoro-6-(2-methoxy-4-(trifluoromethyl)phenyl)picolinate] | – | – | – | – | – | – | – | 60 to 74% | 95 to 100% | 0 to 29% | 75 to 84% | 85 to 94% | 0 to 29% | 0 to 29% | 60 to 74% | 0 to 29% | 75 to 84% | 60 to 74% | 85 to 94% | 95 to 100% | pest or weed control at 140 g/ha [21]: 30 to 44%; pest or weed control at 140 g/ha [22]: 60 to 74%
COC(=O)c1nc(-c2ccc(C(F)(F)F)cc2)c(F)cc1Cl [F93, Methyl 3-chloro-5-fluoro-6-(4-(trifluoromethyl)phenyl)picolinate] | 0 to 29% | 0 to 29% | 0 to 29% | 45 to 59% | 30 to 44% | 0 to 29% | 60 to 74% | 0 to 29% | 60 to 74% | 0 to 29% | 0 to 29% | 0 to 29% | 0 to 29% | 0 to 29% | 0 to 29% | – | – | – | – | – | –
COC(=O)c1nc(-c2ccc(C(F)(F)F)c(F)c2)c(F)cc1Cl [F307, Methyl 3-chloro-5-fluoro-6-(3-fluoro-4-(trifluoromethyl)phenyl) picolinate] | – | – | – | – | – | – | – | 0 to 29% | 95 to 100% | 0 to 29% | 0 to 29% | 85 to 94% | 0 to 29% | 0 to 29% | 0 to 29% | 0 to 29% | 0 to 29% | 85 to 94% | 75 to 84% | 75 to 84% | pest or weed control at 140 g/ha [21]: 0 to 29%; pest or weed control at 140 g/ha [22]: 0 to 29%
COC(=O)c1cc(Cl)cc(-c2ccc(C(F)(F)F)cc2Cl)n1 [F57, Methyl 4-chloro-6-(2-chloro-4-(trifluoromethyl)phenyl)picolinate] | 0 to 29% | 0 to 29% | 0 to 29% | 0 to 29% | 0 to 29% | 0 to 29% | 0 to 29% | 0 to 29% | 0 to 29% | 0 to 29% | 0 to 29% | 0 to 29% | 0 to 29% | 0 to 29% | 0 to 29% | – | – | – | – | – | –
COC(=O)c1nc(-c2ccc(C(F)(F)F)nc2)ccc1Cl [F114, Methyl 5-chloro-6′-(trifluoromethyl)-[2,3′-bipyridine]-6-carboxylate] | 0 to 29% | 0 to 29% | 0 to 29% | 0 to 29% | 0 to 29% | 0 to 29% | 0 to 29% | 0 to 29% | 30 to 44% | 0 to 29% | 0 to 29% | 0 to 29% | 0 to 29% | 0 to 29% | 0 to 29% | – | – | – | – | – | –
COC(=O)c1nc(-c2cc(OC)c3c(c2)OCO3)c(F)cc1Cl [F231, Methyl 3-chloro-5-fluoro-6-(7-methoxybenzo[d] [1,3]dioxol-5-yl)picolinate] | – | – | – | – | – | – | – | 0 to 29% | 0 to 29% | 0 to 29% | 0 to 29% | 0 to 29% | 0 to 29% | 0 to 29% | 0 to 29% | 0 to 29% | 0 to 29% | 0 to 29% | 0 to 29% | 0 to 29% | pest or weed control at 140 g/ha [21]: 0 to 29%; pest or weed control at 140 g/ha [22]: 0 to 29%

Reference: US20230017045A1, “PYRIDINE AND PYRIMIDINE CARBOXYLATE HERBICIDES AND METHODS OF USE THEREOF” (Dow AgroSciences LLC, priority 2017, published 2023)
